For 16 compounds, IC50 results are on record in patent publication US20260176265A1 (Cancer Research Technology Limited, priority 2022, published 2026).

For orientation: IC50 means the concentration that inhibits the measured activity by half.

For experiment [1], the target named is CtermHisTag-mEGFR Triple Mutant - C797S, L858R, T790M (Homo sapiens, UniProt P00533, C797S/L858R/T790M). Description: TR-FRET probe displacement assay, EGFR triple mutant. Conditions: T790M 1.25 nM, probe 100 nM, 30 mins room temperature. In kind it is binding. How it is done:
(§1) Compounds (dissolved to 100 mM in DMSO) were dispensed into black low volume 384 well assay plates (Corning) over a final concentration range of 100000, 30000, 10000, 3000, 1000, 300, 100, 30, 10, and 3 nM using an Echo 550 (Labcyte). Positive control compound and DMSO as a negative control were dispensed into the first and last well, respectively. […]. Plates were read using a PheraStar FS (BMG Labtech) at Ex337 nm Ex490/520 nm. The data were analysed using Graphpad Prism/Dotmatics Studies Software. Assays conducted in technical replicate and repeated as a biological duplicate.
On the technique in general: TR-FRET usually uses a lanthanide donor and a delayed reading to cut background.

Experiment [2] addresses CtermHisTag-mEGFR Wild type (Homo sapiens, UniProt P00533). Description: TR-FRET probe displacement assay, EGFR wild type. In kind it is binding. The conditions noted are these: EGFR wild type 1.25 nM, probe 100 nM, 30 mins room temperature. How it is done:
as §1

Experiment [3] addresses T1, Phospho-EGFR (Tyr1068) in H1975 C797S cells (Homo sapiens, UniProt P00533, C797S/L858R/T790M).
T1 construct: endogenous in cells; host or cells: H1975 C797S (CRISPR-edited in house from ATCC CRL-5908)
In words: HTRF pEGFR/total EGFR assay in H1975 C797S cells. The conditions noted are these: H1975 C797S cells (CRISPR), compound 3 hours, ratio pEGFR/total EGFR. In kind it is cell-based. Here is the method: H1975 C797S cells (ATCC CRL-5908) were genetically engineered by CRISPR editing of EGFR C797S in house and validated by NGS. Cells were plated at 20,000 cells per well in 96 well plates and placed at 37° C. 5% CO2. Once adhered (after 24h) cells were treated with compounds dissolved in DMSO at a final concentration of 0.1% DMSO in media. Compounds were diluted in media then added to cells for 3 hours in duplicate. Compound and media were removed from the cells, then 50 ul of HTRF lysis buffer was added (lysis buffer was diluted from 4× stock to 1× in DI water, with 1% blocking agent also added). Cells were lysed on a plate shaker (2000 rpm) for 30 minutes at room temperature. pEGFR expression was monitored using the Cisbio Phospho-EGFR (Tyr1068) cellular kit (64EG1PEH). Total EGFR expression was monitored using the Cisbio Total EGFR cellular kit (64NG1PEH) as per manufacturer's instructions. Fluorescence emission was read at two different wavelengths (665 nm and 620 nm) on a PheraStar. Results were calculated as ratio of pEGFR/total EGFR and then percentage of 0 uM control.

Experiment [4] addresses T2, Phospho-EGFR (Tyr1068) in A431 cells (Homo sapiens, UniProt P00533).
T2 construct: endogenous in cells; host or cells: A431
In words: HTRF pEGFR/total EGFR assay in A431 cells (EGF stimulated). In kind it is cell-based. The conditions noted are these: compound 2.5 hours then 100 ng/ml EGF 30 mins, ratio pEGFR/total EGFR. Here is the method: Cells were plated at 20,000 cells per well in 96 well plates and placed at 37° C. 5% CO2. Once adhered (after 24h) cells were treated with compounds dissolved in DMSO at a final concentration of 0.1% DMSO in media. Compounds were diluted in media then added to cells for 2.5 hours in duplicate, 100 ng/ml EGF (ThermoFisher, PHG0311 was is added to all compound treated cells as well as a control for 30 mins. Compound and media were removed from the cells, then 50ul of HTRF lysis bufferwas added (lysis bufferwas diluted from 4× stock to 1× in DI water, with 1% blocking agent also added). Cells were lysed on a plate shaker (2000 rpm) for 30 minutes at room temperature. pEGFR expression was monitored using the Cisbio Phospho-EGFR (Tyr1068) cellular kit (64EG1PEH). Total EGFR expression was monitored using the Cisbio Total EGFR cellular kit (64NG1PEH) as per manufacturer's instructions. Fluorescence emission was read at two different wavelengths (665 nm and 620 nm) on a PheraStar. Results were calculated as ratio of pEGFR/total EGFR and then percentage of OuM control.

The target in experiment [5] is T3, Phospho-EGFR (Tyr1068) in H1975 cells (Homo sapiens, UniProt P00533, L858R/T790M).
T3 construct: host or cells: H1975
In words: HTRF pEGFR/total EGFR assay in H1975 cells. Conditions: compound 3 hours, ratio pEGFR/total EGFR. In kind it is cell-based. How it is done:
H1975 cells (ATCC CRL-5908) were plated at 20,000 cells per well in 96 well plates and placed at 37° C. 5% CO2. Once adhered (after 24h) cells were treated with compounds dissolved in DMSO at a final concentration of 0.1% DMSO in media. Compounds were diluted in media then added to cells for 3 hours in duplicate. Compound and media were removed from the cells, then 50ul of HTRF lysis buffer is added (lysis buffer was diluted from 4× stock to 1× in DI water, with 1% blocking agent also added). Cells were lysed on a plate shaker (2000 rpm) for 30 minutes at room temperature. pEGFR expression was monitored using the Cisbio Phospho-EGFR (Tyri068) cellular kit (64EG1 PEH). Total EGFR expression was monitored using the Cisbio Total EGFR cellular kit (64NG1 PEH) as per manufacturer's instructions. Fluorescence emission was read at two different wavelengths (665 nm and 620 nm) on a PheraStar. Results were calculated as ratio of pEGFR/total EGFR and then percentage of 0 uM control.

T3 sequence (P00533 25-1210 T790M/L858R): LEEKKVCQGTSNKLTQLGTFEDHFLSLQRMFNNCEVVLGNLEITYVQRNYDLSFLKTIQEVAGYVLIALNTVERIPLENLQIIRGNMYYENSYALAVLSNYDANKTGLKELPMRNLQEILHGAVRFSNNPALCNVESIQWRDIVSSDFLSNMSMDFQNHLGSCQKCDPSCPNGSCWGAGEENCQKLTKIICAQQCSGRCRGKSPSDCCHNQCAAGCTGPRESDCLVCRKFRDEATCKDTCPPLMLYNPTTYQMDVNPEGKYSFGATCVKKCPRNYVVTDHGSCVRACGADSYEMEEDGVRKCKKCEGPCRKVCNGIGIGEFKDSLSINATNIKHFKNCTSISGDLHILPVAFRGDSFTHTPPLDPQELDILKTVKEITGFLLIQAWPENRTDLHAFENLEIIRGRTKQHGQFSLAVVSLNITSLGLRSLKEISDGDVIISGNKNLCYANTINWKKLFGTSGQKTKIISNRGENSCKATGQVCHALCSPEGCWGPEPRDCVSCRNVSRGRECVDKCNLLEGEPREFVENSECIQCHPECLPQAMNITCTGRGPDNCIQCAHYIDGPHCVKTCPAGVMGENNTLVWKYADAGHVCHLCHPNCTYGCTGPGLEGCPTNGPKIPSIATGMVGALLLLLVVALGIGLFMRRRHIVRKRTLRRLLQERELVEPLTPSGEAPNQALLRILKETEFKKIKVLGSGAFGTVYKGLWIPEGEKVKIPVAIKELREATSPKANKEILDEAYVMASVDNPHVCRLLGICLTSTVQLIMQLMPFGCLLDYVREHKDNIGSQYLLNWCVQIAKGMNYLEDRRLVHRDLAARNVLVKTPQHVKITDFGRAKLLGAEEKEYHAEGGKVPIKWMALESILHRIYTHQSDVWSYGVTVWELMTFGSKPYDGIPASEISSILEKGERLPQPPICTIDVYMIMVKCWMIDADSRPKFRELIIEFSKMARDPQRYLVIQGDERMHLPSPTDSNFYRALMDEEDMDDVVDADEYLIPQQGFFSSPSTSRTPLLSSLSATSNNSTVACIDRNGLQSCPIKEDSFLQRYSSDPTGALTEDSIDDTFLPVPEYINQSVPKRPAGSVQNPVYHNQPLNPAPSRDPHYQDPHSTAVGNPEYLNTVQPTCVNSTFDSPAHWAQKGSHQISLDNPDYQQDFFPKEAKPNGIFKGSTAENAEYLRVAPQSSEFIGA
Chain of CtermHisTag-mEGFR Wild type (P00533 25-1210): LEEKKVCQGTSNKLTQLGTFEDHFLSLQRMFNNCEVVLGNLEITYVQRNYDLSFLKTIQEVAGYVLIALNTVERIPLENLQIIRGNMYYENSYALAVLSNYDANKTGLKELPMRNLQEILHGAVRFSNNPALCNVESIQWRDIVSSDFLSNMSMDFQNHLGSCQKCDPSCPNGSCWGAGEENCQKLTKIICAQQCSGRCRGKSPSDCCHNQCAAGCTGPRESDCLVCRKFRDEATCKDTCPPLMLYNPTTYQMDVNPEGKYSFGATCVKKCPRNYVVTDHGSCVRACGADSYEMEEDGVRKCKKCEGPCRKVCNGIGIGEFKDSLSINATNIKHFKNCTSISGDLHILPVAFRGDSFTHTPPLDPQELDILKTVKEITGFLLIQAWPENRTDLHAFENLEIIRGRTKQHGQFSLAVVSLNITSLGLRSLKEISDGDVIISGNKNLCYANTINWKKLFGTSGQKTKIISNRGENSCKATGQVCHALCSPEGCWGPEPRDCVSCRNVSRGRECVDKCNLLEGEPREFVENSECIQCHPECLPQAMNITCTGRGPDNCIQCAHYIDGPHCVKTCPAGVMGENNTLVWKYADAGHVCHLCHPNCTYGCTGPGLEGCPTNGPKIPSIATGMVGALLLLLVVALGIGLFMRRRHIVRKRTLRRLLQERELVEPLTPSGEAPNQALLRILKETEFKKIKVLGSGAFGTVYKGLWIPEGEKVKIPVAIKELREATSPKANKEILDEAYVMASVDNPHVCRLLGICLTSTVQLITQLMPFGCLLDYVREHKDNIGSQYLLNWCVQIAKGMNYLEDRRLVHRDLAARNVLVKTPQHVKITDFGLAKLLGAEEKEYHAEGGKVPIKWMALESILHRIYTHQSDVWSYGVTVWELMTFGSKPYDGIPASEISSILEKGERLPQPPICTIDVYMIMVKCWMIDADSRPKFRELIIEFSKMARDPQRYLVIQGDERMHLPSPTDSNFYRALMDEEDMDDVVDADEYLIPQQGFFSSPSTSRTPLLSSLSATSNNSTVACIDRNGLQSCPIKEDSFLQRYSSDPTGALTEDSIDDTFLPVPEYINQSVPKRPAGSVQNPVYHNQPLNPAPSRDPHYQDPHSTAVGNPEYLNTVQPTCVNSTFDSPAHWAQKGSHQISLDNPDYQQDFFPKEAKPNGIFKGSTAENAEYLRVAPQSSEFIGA
T2 sequence (P00533 25-1210): as above
T1 sequence (P00533 25-1210 T790M/C797S/L858R): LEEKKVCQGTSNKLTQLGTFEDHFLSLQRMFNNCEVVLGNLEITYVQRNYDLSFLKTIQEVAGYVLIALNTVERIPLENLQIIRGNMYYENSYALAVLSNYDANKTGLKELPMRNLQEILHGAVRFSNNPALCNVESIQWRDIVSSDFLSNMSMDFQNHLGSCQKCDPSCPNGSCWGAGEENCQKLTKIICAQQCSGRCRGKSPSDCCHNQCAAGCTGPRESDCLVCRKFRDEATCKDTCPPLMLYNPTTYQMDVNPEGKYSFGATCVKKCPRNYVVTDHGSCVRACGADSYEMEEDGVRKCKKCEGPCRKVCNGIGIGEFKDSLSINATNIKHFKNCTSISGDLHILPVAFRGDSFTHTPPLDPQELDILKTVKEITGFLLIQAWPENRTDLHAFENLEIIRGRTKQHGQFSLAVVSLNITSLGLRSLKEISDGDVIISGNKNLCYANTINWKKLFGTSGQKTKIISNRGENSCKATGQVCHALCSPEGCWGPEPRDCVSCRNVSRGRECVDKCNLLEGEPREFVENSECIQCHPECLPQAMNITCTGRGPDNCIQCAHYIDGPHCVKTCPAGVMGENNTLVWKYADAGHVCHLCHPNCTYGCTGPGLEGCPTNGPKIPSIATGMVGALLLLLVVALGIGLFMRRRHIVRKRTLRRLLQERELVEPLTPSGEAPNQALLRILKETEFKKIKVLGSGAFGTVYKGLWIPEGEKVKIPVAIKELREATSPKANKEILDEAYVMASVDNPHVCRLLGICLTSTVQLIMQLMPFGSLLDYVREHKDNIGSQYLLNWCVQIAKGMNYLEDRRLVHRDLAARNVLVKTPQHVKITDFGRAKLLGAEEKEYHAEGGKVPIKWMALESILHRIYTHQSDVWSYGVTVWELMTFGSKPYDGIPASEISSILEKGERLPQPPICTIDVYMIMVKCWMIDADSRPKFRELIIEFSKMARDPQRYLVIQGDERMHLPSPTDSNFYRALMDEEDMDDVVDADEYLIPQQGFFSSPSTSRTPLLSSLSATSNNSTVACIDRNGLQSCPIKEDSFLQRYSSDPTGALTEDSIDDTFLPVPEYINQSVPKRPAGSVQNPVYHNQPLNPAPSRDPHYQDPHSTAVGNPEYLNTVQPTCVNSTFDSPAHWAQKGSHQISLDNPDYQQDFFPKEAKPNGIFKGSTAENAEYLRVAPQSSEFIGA

`C#Cc1ccnc2nc(Nc3ccccc3OC)ncc12` [Example 1, 5-ethynyl-N-(2-methoxyphenyl)pyrido[2,3-d]pyrimidin-2-amine]: the IC50 was 0.1 to 1 µM in experiment [1] and more than 10 µM in experiment [2].
With `C#Cc1cc(OC)nc2nc(Nc3ccc(N(C)CCN(C)C)cc3)ncc12` [Example 2, N^1-(2-(dimethylamino)ethyl)-N^4-(5-ethynyl-7-methoxypyrido[2,3-d]pyrimidin-2-yl)-N^1-methylbenzene-1,4-diamine], the half-inhibitory concentration (IC50) in experiment [3] is more than 3 µM; in experiment [1], 0.1 to 1 µM; in experiment [4], more than 3 µM; in experiment [2] it was more than 10 µM; in experiment [5] it was 1 to 3 µM.
Take `C#Cc1cc(OC)nc2nc(Nc3ccc(N4CCN(C)CC4)cc3)ncc12` [Example 3, 5-ethynyl-7-methoxy-N-(4-(4-methylDiDerazin-1-yl)phenyl)vrido[2,3-d]pyrimidin-2-amine]: the IC50 in experiment [3] was 1 to 3 µM; in experiment [1] it was 0.1 to 1 µM; in experiment [4], more than 3 µM; in experiment [2], more than 10 µM; in experiment [5], 0.5 to 1 µM.
With `C#Cc1cc(OC)nc2nc(Nc3cccc(CN(C)C4CCC4)c3)ncc12` [Example 4, N-(3-{[cyclobutyl(methyl)amino]methyl}phenyl)-5-ethynyl-7-methoxypyrido[2,3-d]pyrimidin-2-amine], the IC50 in experiment [3] is more than 3 µM; in experiment [1] it was 0.1 to 1 µM; in experiment [4] it was more than 3 µM; in experiment [2], more than 10 µM; in experiment [5] it was more than 3 µM.
For the compound `C#Cc1cc(OC)nc2nc(Nc3ccc(N4CCN(C)CC4)c(N(C)C)c3)ncc12` [Example 5, N^3-{5-ethynyl-7-methoxypyrido[2,3-d]pyrimidin-2-yl}-N^1,N^1-dimethyl-6-(4-methylpiperazin-1-yl)benzene-1,3-diamine], the half-maximal inhibitory concentration (IC50) in experiment [3] was more than 3 µM; in experiment [1] it was 0.1 to 1 µM; in experiment [4], more than 3 µM; in experiment [2], more than 10 µM; in experiment [5], more than 3 µM.
In the case of `C#Cc1cc(OC)nc2nc(Nc3ccc(N4CCN(C)CC4)c(Nc4ccccc4)c3)ncc12` [Example 6, N^1-{5-ethynyl-7-methoxypyrido[2,3-d]pyrimidin-2-yl}-4-(4-methylpiperazin-1-yl)-N^3-phenylbenzene-1,3-diamine], the IC50 in experiment [3] is more than 3 µM; in experiment [1], 0.02 to 0.1 µM; in experiment [4], more than 3 µM; in experiment [2] it was 1 to 10 µM; in experiment [5], 1 to 3 µM.
With `C#Cc1cc(OC)nc2nc(Nc3cccc(CN(C)C(C)=O)c3)ncc12` [Example 7, N-{[3-({5-ethynyl-7-methoxypyrido[2,3-d]pyrimidin-2-yl}amino)pheny]methyl}-N-methylacetamide], the IC50 in experiment [3] is more than 3 µM; in experiment [1], 0.1 to 1 µM; in experiment [4], more than 3 µM; in experiment [2] it was more than 10 µM; in experiment [5], more than 3 µM.
For `C#Cc1cc(OC)nc2nc(Nc3ccc(N4CCN(C)CC4)c(NC4CCC4)c3)ncc12` [Example 8, N^3-cyclobutyl-N^1-{5-ethynyl-7-methoxypyrido[2,3-d]pyrimidin-2-yl}-4-(4-methylpiperazin-1-yl)benzene-1,3-diamine], the IC50 in experiment [3] is more than 3 µM; in experiment [1] it was 0.02 to 0.1 µM; in experiment [4], more than 3 µM; in experiment [2], 1 to 10 µM; in experiment [5], 1 to 3 µM.
`C#Cc1cc(OC)nc2nc(Nc3cccc(CN(C)C)c3)ncc12` [Example 9, N-{3-[(dimethylamino)methyl]phenyl}-5-ethynyl-7-methoxypyrido[2,3-d] pyrimidin-2-amine]: the concentration for half-maximal inhibition (IC50) in experiment [3] is more than 3 µM; in experiment [1], 0.1 to 1 µM; in experiment [4], more than 3 µM; in experiment [2], more than 10 µM; in experiment [5], more than 3 µM.
Consider `C#Cc1cc(OC)nc2nc(Nc3ccc(N4CCN(C)CC4)c(NCC4CCC4)c3)ncc12` [Example 10, N^3-(cyclobutylmethyl)-N^1-{5-ethynyl-7-methoxypyrido[2,3-d]pyrimidin-2-yl}-4-(4-methylpiperazin-1-yl)benzene-1,3-diamine], for which the IC50 in experiment [3] was more than 3 µM; in experiment [1], 0.02 to 0.1 µM; in experiment [4] it was more than 3 µM; in experiment [2], 1 to 10 µM; in experiment [5], more than 3 µM.
For the compound `C#Cc1cc(OC)nc2nc(Nc3ccc(N4CCN(C)CC4)c(NCc4ccn(C)n4)c3)ncc12` [Example 11, N^1-{5-ethynyl-7-methoxypyrido[2,3-d]pyrimidin-2-yl}-4-(4-methylpiperazin-1-yl)-N^3-[(1-methylpyrazol-3-yl)methyl]benzene-1,3-diamine], the IC50 in experiment [3] was more than 3 µM; in experiment [1], 0.1 to 1 µM; in experiment [4], more than 3 µM; in experiment [2], more than 10 µM; in experiment [5], more than 3 µM.
With `C#Cc1cc(Oc2ccccc2)nc2nc(Nc3ccc(N4CCN(C)CC4)cc3)ncc12` [Example 12, 5-ethynyl-N-[4-(4-methylpiperazin-1-yl)phenyl]-7-phenoxypyrido[2,3-d]pyrimidin-2-amine], the half-maximal inhibitory concentration (IC50) was more than 3 µM in experiment [3]; 0.1 to 1 µM in experiment [1]; more than 3 µM in experiment [4]; more than 10 µM in experiment [2]; more than 3 µM in experiment [5].
Consider `C#Cc1cc(OCc2cscn2)nc2nc(Nc3ccc(N4CCN(C)CC4)cc3)ncc12` [Example 13, 5-ethynyl-N-[4-(4-methylpiperazin-1-yl)phenyl]-7-(1,3-thiazol-4-ylmethoxy)pyrido[2,3-d]pyrimidin-2-amine], for which the IC50 was more than 3 µM in experiment [3]; 0.02 to 0.1 µM in experiment [1]; more than 3 µM in experiment [4]; more than 10 µM in experiment [2]; 1 to 3 µM in experiment [5].
As to `C#Cc1cc(NC(=O)NC2CCCC2)nc2nc(Nc3cccc(N(C)[C@H]4C[C@@H](CS(C)(=O)=O)C4)c3)ncc12` [Example 119], the IC50 in experiment [3] is less than 0.5 µM; in experiment [1], 0.02 to 0.1 µM; in experiment [2], less than 1 µM; in experiment [5], less than 0.5 µM.
Take `C#Cc1cc(NC(=O)NC2CCCC2)nc2nc(Nc3cccc(N(C)[C@H]4CC[C@@H](CS(C)(=O)=O)CC4)c3)ncc12` [Example 120]: the IC50 in experiment [3] was less than 0.5 µM; in experiment [1] it was 0.02 to 0.1 µM; in experiment [2] it was less than 1 µM; in experiment [5], less than 0.5 µM.
Consider `C#Cc1cc(NC(=O)NC2CCCC2)nc2nc(Nc3cccc(N(C)[C@H]4CC[C@H](CS(C)(=O)=O)CC4)c3)ncc12` [Example 121], for which the IC50 in experiment [3] was less than 0.5 µM; in experiment [1], 0.02 to 0.1 µM; in experiment [2], less than 1 µM; in experiment [5] it was 0.5 to 1 µM.
